Read-outs that look alike come from different tables or passages of the source.
What was measured:
ras oncogene p21 protein = conditions: U.S. Pat. No. 5,158,960; Liu et al.; cited from earlier work
HIV-RT = HIV-RT (Human immunodeficiency virus type 1 group M subtype B, UniProt P03366); test: HIV-RT inhibition by AZT-TP, lavendamycin analogs and their combinations; type: biochemical; parameters: unit of the concentration uncertain; conditions: AZT-TP Conc. 0 (unit uncertain); for % inh. ave.: average of three trials
Source text: AZT-TP was used for these in vitro studies since AZT is naturally phosphorylated in vivo.
The results of these tests are given in Table XVIII and XIX below, where the percent inhibition of HIV-RT activity is reported for three different trials and then averaged in the seventh column. […] .

[1] = system: normal rat kidney epithelial (NRKE) cells
[2] = system: K/1 = ras^K Transformed NRKE Cells; conditions: for Differential Index K/1: K/1 = ras^K transformed NRKE cells, compared with normal NRKE cells
[3] = system: H/1.2 = ras^H Transformed NRKE Cells; conditions: for Differential Index H/1.2: H/1.2 = ras^H transformed NRKE cells, compared with normal NRKE cells
[4] = system: N/4.2-NRKE transformed by the human ras^N gene; conditions: for Differential Index N/4.2: N/4.2 = ras^N transformed NRK cells, compared with normal NRKE cells
[5] = system: 3LL = Lewis Lung Carcinoma Cells; conditions: for Differential Index 3LL: 3LL = Lewis lung carcinoma cells, compared with normal NRKE cells
Leukemia cell lines = test: NCI in vitro anticancer screen (SRB), leukemia subpanel; conditions: 48 hours exposure; average percent growth over the cell lines
Description: (§1) Compounds chosen for the program are initially tested in an in vitro anticancer screen. A total of fifty-five human tumor cell lines, derived from nine cancer types (lung, colon, melanoma, renal, ovarian, brain, prostate, breast and leukemia), are used in this screen. The tumor cells are inoculated over a series of standard 96-well microtiter plates on day 0. These cells are then preincubated on the microtiter plates for 24 hours. The test compounds are added to the wells in five 10-fold dilutions starting from the highest soluble concentration. Each compound is tested against every cell line in the panel. The compounds are incubated for 48 hours with the tumor cell lines. At the termination of the assay, the cells are fixed in situ, washed, and dried. Sulforhodamine B (SRB), a pink anionic dye that binds to the basic amino acids of trichloroacetic acid-fixed cells, is added. The cells are washed again, and the remaining dye is a function of the adherent cell mass. The bound stain is solubilized and measured spectrophotometrically. The data are entered from automatic reading devices into a computer for subsequent storage and analysis.
(§2) The measured effect of each test compound on the cell lines is calculated according to one or the other of the following two expressions:
(§3) If (Mean ODtest−Mean ODtzero)□0, then PG=100×(Mean ODtest−Mean ODtzero)/(Mean ODctrl−Mean ODtzero);
(§4) If (Mean ODtest−Mean ODtzero)<0, then PG=100×(Mean ODtest−Mean ODtzero)/Meantzero;
(§5) First, a data sheet is provided which lists, for each cell line, the Mean ODtzero, the Mean ODctrl, the Mean ODtest for each of the five concentrations, the calculated PGs for each concentration, and the response parameters G150, TGI, and LC50.
(§6) Third, mean graphs at each of the principal response parameters (GI50, TGI, and LC50) are provided. […] Since the bar scale is logarithmic, a bar two units to the right implies the compound achieved the response parameter (e.g., GI50) for the cell line at a concentration 1/100 the mean concentration required over all cell lines, and thus the cell line is unusually sensitive to that compound. Bars extending to the left correspondingly imply sensitivity less than the mean. Thus, the mean graphs facilitate visual scanning of data for potential patterns of selectivity for particular cell lines or for particular subpanels with respect to a selected response parameter.

Melanoma cell lines = test: NCI in vitro anticancer screen (SRB), melanoma subpanel; conditions: 48 hours exposure; average percent growth over the cell lines
CNS Cancer cell lines = test: NCI in vitro anticancer screen (SRB), CNS cancer subpanel; conditions: 48 hours exposure; average percent growth over the cell lines
Description: as §1, §2, §3, §4, §5, §6

Colon Cancer cell lines = test: NCI in vitro anticancer screen (SRB), colon cancer subpanel; conditions: 48 hours exposure; average percent growth over the cell lines
Renal Cancer cell lines = test: NCI in vitro anticancer screen (SRB), renal cancer subpanel; conditions: for Activity (Average PG for highest dose tested) Renal Cancer: 48 hours exposure, average percent growth over the cell lines
Description: as §1, §2, §3, §4, §5, §6

Breast Cancer cell lines = test: NCI in vitro anticancer screen (SRB), breast cancer subpanel; conditions: 48 hours exposure; average percent growth over the cell lines
Description: as §1, §2, §3, §4

[6] = system: Ovarian Cancer cell lines; test: NCI in vitro anticancer screen (SRB), ovarian cancer subpanel; conditions: 48 hours exposure; average percent growth over the cell lines
Description: as §1, §2, §3, §4

[7] = system: Prostate Cancer cell lines; test: NCI in vitro anticancer screen (SRB), prostate cancer subpanel; conditions: 48 hours exposure; average percent growth over the cell lines
[8] = system: Non-Small Cell Lung Cancer cell lines; test: NCI in vitro anticancer screen (SRB), non-small cell lung cancer subpanel; conditions: for Activity (Average PG for highest dose tested) Non-Small Cell Lung Cancer: 48 hours exposure, average percent growth over the cell lines
Description: as §1, §2, §3, §4, §5, §6

[9] = system: K/1 = ras^K Transformed NRKE Cells; test: cells; conditions: Rattus norvegicus
[10] = system: H/1.2 = ras^H Transformed NRKE Cells; test: cells; conditions: Rattus norvegicus
[11] = system: N/4.2-NRKE transformed by the human ras^N gene; test: cells; conditions: N42, read-out: LC50 N/4.2
[12] = system: 3LL = Lewis Lung Carcinoma Cells; test: cells; conditions: Mus musculus
[13] = NCI toxicity studies, maximum tolerated dose; conditions: mouse, in vivo; mice
Description: As a result of its performance in an initial and a repeat cancer screen, compound 55 has been selected for in vivo testing. Compound 55 was chosen primarily because of its selectivity for non-small cell lung cancer. To date, toxicity studies have been performed, and the maximum tolerated dose in mice has been determined to be 400 mg/kg.

[14] = found by other investigators; cited from earlier work
[15] = 120 h, read-out: LC50 3LL, Table VII, concentration giving 50% cell kill, 5 days exposure
[16] = read-out: LC50 3LL, Table XV (Example 51)

## COC1=C(N)C(=O)c2nc(-c3nc(C(=O)O)c(C)c(-c4ccc(OC)cc4O)c3N)ccc2C1=O [10′-Desmethoxystreptonigrin, 10′-desmethoxystreptonigrin]
Ras oncogene p21 protein
  activity relative to streptonigrin in an assay for the inhibition of the farnesylation of ras oncogene p21 protein: three times more active than streptonigrin

## CC(=O)NC1=CC(=O)c2ccc(-c3nc(C(N)=O)cc4c3[nH]c3ccccc34)nc2C1=O [Compound 16]
HIV-RT; LA Conc. 3.0 (unit uncertain)
  % inh. Trial 1: 0%
  % inh. Trial 2: 3%
  % inh. Trial 3: 12%
  % inh. ave.: 5.0%
HIV-RT; LA Conc. 6.0 (unit uncertain)
  % inh. Trial 1: 26%
  % inh. Trial 2: 33%
  % inh. Trial 3: 30%
  % inh. ave.: 29.7%
HIV-RT; LA Conc. .5 (unit uncertain)
  % inh. Trial 1: 0%
  % inh. Trial 2: 0%
  % inh. Trial 3: 0%
  % inh. ave.: 0.0%
[1]
  CC50: 900 nM
[2]
  CC50: 350 nM
  Differential Index K/1: 2.57
[3]
  CC50: 230 nM
  Differential Index H/1.2: 3.91
[4]
  CC50: 220 nM
  Differential Index N/4.2: 4.09
[5]
  CC50: 210 nM
  Differential Index 3LL: 4.29
Leukemia cell lines
  Activity (Average PG for highest dose tested) Leukemia: −28.3%
Melanoma cell lines
  Activity (Average PG for highest dose tested) Melanoma: −78.4%
CNS Cancer cell lines
  Activity (Average PG for highest dose tested) CNS Cancer: −60.4%
Colon Cancer cell lines
  Activity (Average PG for highest dose tested) Colon Cancer: −52.1%
Renal Cancer cell lines
  Activity (Average PG for highest dose tested) Renal Cancer: −72.9%
Renal Cancer cell lines; at GI50, TGI and/or LC50, initial screen
  Selectivity: sensitivity of one of the seven renal cancer cell lines relative to average sensitivity of the fifty-five cell lines: One of the seven renal cancer cell lines was about 100 times
Renal Cancer cell lines; repeat cancer screen
  selectivity for renal cancer (in words): did not exhibit the selectivity for renal cancer
Breast Cancer cell lines
  Activity (Average PG for highest dose tested) Breast Cancer: −45.1%
[6]
  Activity (Average PG for highest dose tested) Ovarian Cancer: −55.5%
[7]
  Activity (Average PG for highest dose tested) Prostate Cancer: −18.0%
[8]
  Activity (Average PG for highest dose tested) Non-Small Cell Lung Cancer: −52.3%

## CC(=O)NC1=CC(=O)c2ccc(C)nc2C1=O [Compound 27, 7-ACETAMIDO-2-METHYLQUINOLINE-5,8-DIONE]
[1]; rat, 5 days
  CC50: 4600 nM
[2]
  Differential Index K/1: 0.3
[3]
  Differential Index H/1.2: 0.9
[4]
  Differential Index N/4.2: 0.8
[5]
  Differential Index 3LL: 1.8
[9]; 120 h, read-out: LC50 K/1
  CC50: 5900 nM
[9]; read-out: LC50 K/1
  CC50: 14000 nM
[10]; 120 h, read-out: LC50 H/1.2
  CC50: 4400 nM
[10]; read-out: LC50 H/1.2
  CC50: 5000 nM
[11]
  CC50: 5700 nM
[12]; [15]
  CC50: 2000 nM
[12]; [16]
  CC50: 2600 nM
In vitro; rat, LC50 NRKE
  CC50 at 5 days: 2400 nM

## COC(=O)c1nc(-c2ccc3c(n2)C(=O)C(N)=CC3=O)c2[nH]c3ccccc3c2c1C [Compound 55, lavendamycin methyl ester, reference compound]
[13]
  MTD: 400 mg/kg
[2]
  Differential Index K/1: 3.33
[2]; ras^K cells versus normal cells
  selective toxicity (Table IX): 0.5
[3]
  Differential Index H/1.2: 0.9
[4]
  Differential Index N/4.2: 1.67
[5]
  Differential Index 3LL: 0.4
[9]; 120 h, read-out: LC50 K/1, Table VII, concentration giving 50% cell kill, 5 days exposure
  CC50: 200 nM
[9]; read-out: LC50 K/1, Table VIII
  CC50: 200 nM
[9]; read-out: LC50 K/1, Table XV (Example 51)
  CC50: 30 nM
[9]; read-out: LC50 K/1, second table headed TABLE VIII
  CC50: 200 nM
[10]; 120 h, read-out: LC50 H/1.2, Table VII, concentration giving 50% cell kill, 5 days exposure
  CC50: 100 nM
[10]; read-out: LC50 H/1.2, Table VIII
  CC50: 100 nM
[10]; read-out: LC50 H/1.2, Table XV (Example 51)
  CC50: 110 nM
[10]; read-out: LC50 H/1.2, second table headed TABLE VIII
  CC50: 100 nM
[11]
  CC50: 60 nM
[12]; [15]
  CC50: 500 nM
[12]; read-out: LC50 3LL, Table VIII
  CC50: 500 nM
[12]; [16]
  CC50: 250 nM
[12]; read-out: LC50 3LL, second table headed TABLE VIII
  CC50: 500 nM
In vitro
  CC50 at 5 days: 100 nM
Leukemia cell lines
  Activity (Average PG for highest dose tested) Leukemia: +30.0%
Melanoma cell lines
  Activity (Average PG for highest dose tested) Melanoma: −53.0%
CNS Cancer cell lines
  Activity (Average PG for highest dose tested) CNS Cancer: −39.3%
Colon Cancer cell lines
  Activity (Average PG for highest dose tested) Colon Cancer: −20.0%
Renal Cancer cell lines
  Activity (Average PG for highest dose tested) Renal Cancer: −63.8%
Breast Cancer cell lines
  Activity (Average PG for highest dose tested) Breast Cancer: −43.8%
[6]
  Activity (Average PG for highest dose tested) Ovarian Cancer: −43.5%
[7]
  Activity (Average PG for highest dose tested) Prostate Cancer: −31.0%
[8]
  Activity (Average PG for highest dose tested) Non-Small Cell Lung Cancer: −60.8%
[8]; at GI50, TGI and/or LC50
  Selectivity: sensitivity of one of the seven non-small cell lung cancer cell lines relative to average sensitivity of the fifty-five cell lines: ~100 times more sensitive to compound 55 than the

## Cc1c(C(=O)O)nc(-c2ccc3c(n2)C(=O)C(N)=CC3=O)c2[nH]c3ccccc3c12 [lavendamycin, Lavendamycin]
[14]
  dose that is lethal: 100 mg/kg/day
